Data published in patent US5332820A, “Dibenzobicyclo(2.2.2) octane angiotensin II antagonists” (priority 1991, dated 1994).

What was measured:
[1] = molecular target: AII receptor (rat adrenal cortical microsomes); experiment: Angiotensin II receptor binding (ligand-receptor binding assay; displacement of 3H-AII or 125I-AII); settings: 2 nM 3H-AII or 0.05 nM 125I-AII, 1 hour, room temperature
Procedure: The hormone angiotensin II (AII) produces numerous biological responses, e.g., vasoconstriction, through stimulation of its receptors on cell membranes. For the purpose of identifying compounds such as AII antagonists which are capable of interacting with the AII receptor, a ligand-receptor binding assay was utilized for the initial screen. The assay was carried out according to the method described by Glossmann, et al., J. Biol. Chem., 249, 825 (1974), but with some modifications. The reaction mixture contained rat adrenal cortical microsomes (source of AII receptor) in Tris buffer and 2 nM of ^3 H-AII or 0.05 nM ^125 I-AII with or without potential AII antagonist. This mixture was incubated for 1 hour at room temperature and the reaction was subsequently terminated by rapid filtration and rinsing through glass micro-fibre filter. Receptor-bound ^3 H-AII or ^125 I-AII trapped in filter was quantitated by scintillation counting. The inhibitory concentration (IC50) of potential AII antagonist which gives 50% displacement of the total specifically bound ^3 H-AII or ^125 I-AII is a measure of the affinity of such compound for the AII receptor.

Renal Hypertensive Rats = experiment: Antihypertensive effects in renal hypertensive rats, intravenous activity; type: in vivo, rat; settings: awake renal artery-ligated rats; i.v.; 10 mg/kg (footnote)
Procedure: This procedure increases blood pressure by increasing renin production with consequent elevation of AII levels. […] Arterial blood pressure is continuously measured directly through a carotid artery cannula and recorded using a pressure transducer and a polygraph. Blood pressure levels after treatment are compared to pretreatment levels to determine the antihypertensive effects of the compounds which were tested.

[2] = tested on: renal vasoconstrictor effect of indomethacin; settings: dogs with non-hypotensive hemorrhage; cited from earlier work
[3] = tested on: renal vasoconstrictor effect of indomethacin and meclofenamate; settings: dogs; cited from earlier work
[4] = tested on: arterial pressure in mammals and man; settings: cited from earlier work
[5] = tested on: effects of AII on the blood pressure of pithed rats; settings: cited from earlier work

Row | SMILES | IC50 [1] [nM] | Antihypertensive Effects in Renal Hypertensive Rats, Intravenous Activity (Renal Hypertensive Rats) | further results
1 | CCCCc1nc(Cl)c(C=O)n1Cc1ccc2c(c1)C1c3ccccc3C2C(C(=O)O)C1C(=O)O (mixture of isomers) [Example 1, (±)-cis-2-[(2-n-butyl-4-chloro-5-formylimidazol-1-yl)methyl]-9,10-dihydro-9,10-ethanoanthracene-11,12-dicarboxylic acid, a mixture of endo and oxo isomers] | 1100 | + (Significant decrease in blood pressure at 10 mg/kg or less) | –
2 | CCCCc1nc(Sc2ccccc2)c(C=O)n1Cc1ccc2c(c1)C1c3ccccc3C2C(c2nnn[nH]2)C1c1nnn[nH]1 (mixture of isomers) [Example 4, (±)-trans-2-[(2-n-butyl-4-phenylthio-5-formylimidazol-l-yl)methyl]-9,10-dihydro-9,10-ethano-11,12-bis (1H-tetrazol-5-yl) anthracene: one diastereomer] | 460 | + (Significant decrease in blood pressure at 10 mg/kg or less) | –
3 | C[C@H](CS)C(=O)N1CCC[C@H]1C(=O)O [captopril] | – | – | reversal of renal vasoconstrictor effect of indomethacin [2]: reverse the renal vasoconstrictor effect of indomethacin in dogs
4 | CCCCc1nc(Cl)c(C=O)n1Cc1ccc2c(c1)C1c3ccccc3C2C(C(=O)O)C1C(=O)O (mixture of isomers) [Example 2A, (±)-trans-2-[(2-n-butyl-4-chloro-5-formylimidazol-1-yl)methyl]-9,10-dihydro-9,10-ethanoanthracene-11,12-dicarboxylic acids, both diastereomers] | 220 | + (Significant decrease in blood pressure at 10 mg/kg or less) | –
5 | CNCC(=O)N[C@@H](CCCN=C(N)N)C(=O)N[C@H](C(=O)N[C@@H](Cc1ccc(O)cc1)C(=O)N[C@H](C(=O)N[C@@H](Cc1cnc[nH]1)C(=O)N1CCC[C@H]1C(=O)N[C@@H](C)C(=O)O)C(C)C)C(C)C [Saralasin] | – | – | inhibition of renal vasoconstrictor effect of indomethacin and meclofenamate [3]: inhibit the renal vasoconstrictor effect of indomethacin and meclofenamate in dogs; effect on arterial pressure when the (elevated) pressure is dependent on circulating AII ([4]; mammals and man, AII-dependent pressure): lower arterial pressure in mammals and man; oral effectiveness ([4]; oral doses): oral doses being ineffective; duration of action ([4]; parenteral administration): relatively short-lasting; effect when the pressure is not sustained by AII (agonistic character) ([4]; pressure not sustained by AII): generally elicits pressor effects; block of the effects of AII on blood pressure of pithed rats [5]: blocks the effects of AII on the blood pressure of pithed rats
6 | CCCCc1nc(Cl)c(C=O)n1Cc1ccc2c(c1)C1c3ccccc3C2C(c2nnn[nH]2)C1c1nnn[nH]1 (mixture of isomers) [Example 3, (±)-trans-2-[(2-n-butyl-4-chloro-5-formylimidazol-1-yl)methyl]-9,10-dihydro-9,10-ethano-11,12-bis (1H-tetrazol-5-yl)anthracene, both diastereomers] | 92 | + (Significant decrease in blood pressure at 10 mg/kg or less) | –
7 | CCCCc1nc(Cl)c(C=O)n1Cc1ccc2c(c1)C1c3ccccc3C2C(C(=O)O)C1C(=O)O (mixture of isomers) [Example 2B, (±)-trans-2-[(2-n-butyl-4-chloro-5-formylimidazol-1-yl)methyl]-9,10-dihydro-9,10-ethanoanthracene-11,12-dicarboxylic acids, both diastereomers] | 320 | + (Significant decrease in blood pressure at 10 mg/kg or less) | –
